# Results from US20180282281A1, “IMMUNOREGULATORY AGENTS” (FLEXUS BIOSCIENCES, INC., priority 2014, published 2018).
# Biological target: T1, human IDO1 (Homo sapiens, UniProt P14902)
# T1 construct: expressed in transfected cells
# Experiment: HEK293 human IDO1 cell-based IDO inhibition assay
# Details: read-out: HEK Human IDO-1 Potency
# Procedure: 1HEK293 cells were transfected with a pCDNA-based mammalian expression vector harboring human IDO1 cDNA (NM 002164.2) by electroporation. They were cultured in medium (DMEM with 10% FBS) containing 1 mg/ml G418 for two weeks. Clones of HEK293 cells that stably expressed human IDO1 protein were selected and expanded for IDO inhibition assay.
# The human IDOL/HEK293 cells were seeded at 10,000 cells per 50 μL per well with RPMI/phenol red free media contains 10% FBS in a 384-well black wall clear bottom tissue culture plate (Matrix Technologies LLC) 100 nL of certain concentration of compound was then added to each well using ECHO liquid handling systems. The cells were incubated for 20 hours in 37° C. incubator with 5% CO2.
# The compound treatments were stopped by adding Trichloroacetic Acid (Sigma-Aldrich) to a final concentration at 0.2%. The cell plate was further incubated at 50° C. for 30 minute. The equal volume supernatant (20 μL) and 0.2% (w/v) Ehrlich reagent (4-dimethylaminobenzaldehyde, Sigma-Aldrich) in glacial acetic acid were mixed in a new clear bottom 384-well plate. This plate was then incubated at room temperature for 30 minute. The absorbance at 490 nm was measured on Envision plate reader.
# T1 sequence (P14902 whole entry): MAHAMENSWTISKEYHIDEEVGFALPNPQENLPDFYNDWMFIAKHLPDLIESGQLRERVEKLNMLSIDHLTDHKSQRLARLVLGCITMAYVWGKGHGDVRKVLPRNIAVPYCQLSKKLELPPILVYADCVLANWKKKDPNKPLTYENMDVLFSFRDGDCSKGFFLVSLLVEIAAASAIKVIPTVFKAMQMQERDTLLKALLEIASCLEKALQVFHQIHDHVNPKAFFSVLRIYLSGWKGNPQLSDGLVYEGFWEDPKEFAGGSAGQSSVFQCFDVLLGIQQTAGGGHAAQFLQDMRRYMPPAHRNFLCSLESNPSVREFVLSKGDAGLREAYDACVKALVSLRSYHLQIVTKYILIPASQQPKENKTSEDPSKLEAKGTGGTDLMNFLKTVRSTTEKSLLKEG
row,SMILES,IC50 [µM]
1,"CC(C(=O)Nc1ccc(Cl)cc1)N1CCC(Oc2ccc3nccc(Cl)c3c2)CC1 (single isomer, unassigned) [Example 94]",< 0.25
2,"CC(C(=O)Nc1ccc(Cl)cc1)N1CCN(c2ccnc3ccc(F)cc23)CC1 (single isomer, unassigned) [Example 129, N-(4-Chlorophenyl)-2-(4-(6-fluoroquinolin-4-yl)piperazin-1-yl)propanamide]",< 0.25
3,"CC(C(=O)Nc1ccc(Cl)cc1)N1CCN(c2ccnc3ccc(F)cc23)CC1 (single isomer, unassigned) [Example 130, N-(4-Chlorophenyl)-2-(4-(6-fluoroquinolin-4-yl)piperazin-1-yl)propanamide]",> 0.25
4,"COCC(C(=O)Nc1ccc(Cl)cc1)N1CCN(c2ccnc3ccc(F)cc23)CC1 (single isomer, unassigned) [Example 135, N-(4-chlorophenyl)-2-(4-(6-fluoroquinolin-4-yl)piperazin-1-yl)-3-methoxypropanamide]",> 0.25
5,"CC(C(=O)O)c1ccc(C[C@@H](C(=O)Nc2ccc(Cl)cc2)[C@H]2CC[C@@H](c3ccnc4ccc(F)cc43)CC2)cc1 (single isomer, unassigned) [Example 138]",< 0.05
6,"C[C@H](C(=O)Nc1ccc(Cl)cc1)[C@H]1CC[C@@H](c2ccnc3ccnn32)CC1 (single isomer, unassigned) [Example 144a]",< 0.05
7,"C[C@@H](C(=O)Nc1ccc(Cl)cc1)[C@H]1CC[C@@H](c2ccnc3ccnn32)CC1 (single isomer, unassigned) [Example 144b]",> 0.25
8,"C[C@H](C(=O)Nc1ccc(Cl)cc1)[C@H]1CC[C@H](c2ccnc3ccnn32)CC1 (single isomer, unassigned) [Example 144c]",< 0.25
9,"C[C@@H](C(=O)Nc1ccc(Cl)cc1)[C@H]1CC[C@H](c2ccnc3ccnn32)CC1 (single isomer, unassigned) [Example 144d]",> 0.25
10,"CCCC(C(=O)Nc1ccc(Cl)cc1)N1CCN(c2ccnc3ccc(F)cc23)CC1 (single isomer, unassigned) [Example 245, N-(4-Chlorophenyl)-2-(4-(6-fluoroquinolin-4-yl)piperazin-1-yl)pentanamide]",< 0.25
11,"CCCC(C(=O)Nc1ccc(Cl)cc1)N1CCN(c2ccnc3ccc(F)cc23)CC1 (single isomer, unassigned) [Example 246, N-(4-Chlorophenyl)-2-(4-(6-fluoroquinolin-4-yl)piperazin-1-yl)pentanamide]",> 0.25
12,"CCCC(C(=O)NC1(C)CCCCC1)N1CCN(c2ccnc3ccc(F)cc23)CC1 (single isomer, unassigned) [Example 248, 2-(4-(6-Fluoroquinolin-4-yl)piperazin-1-yl)-N-(1-methylcyclohexyl)pentanamide]",> 0.25
13,"CCCC(C(=O)NC1(C)CCCCC1)N1CCN(c2ccnc3ccc(F)cc23)CC1 (single isomer, unassigned) [Example 249, 2-(4-(6-Fluoroquinolin-4-yl)piperazin-1-yl)-N-(1-methylcyclohexyl)pentanamide]",< 0.05
14,"CC(C(=O)Nc1ccc(F)cc1)N1CCC(Oc2ccnc3ccc(F)cc23)CC1 (single isomer, unassigned) [compound 105]",< 0.05
15,"CC(C(=O)Nc1ccc(F)cc1)N1CCC(Oc2ccnc3ccc(F)cc23)CC1 (single isomer, unassigned) [compound 106]",> 0.25
16,"Cc1ccc(NC(=O)C(C)N2CCC(Oc3ccnc4ccc(F)cc34)CC2)cc1 (single isomer, unassigned) [compound 109]",< 0.05
17,"Cc1ccc(NC(=O)C(C)N2CCC(Oc3ccnc4ccc(F)cc34)CC2)cc1 (single isomer, unassigned) [compound 110]",> 0.25
18,"C[C@@H](C(=O)Nc1ccccc1)[C@H]1CC[C@@H](c2ccnc3ccc(F)cc32)CC1 [Example 58, (R)-2-((cis)-4-(6-fluoroquinolin-4-yl)cyclohexyl)-N-phenylpropanamide]",< 0.05
19,"Cc1cc(F)ccc1NC(=O)[C@H](C)[C@H]1CC[C@@H](c2ccnc3ccc(F)cc32)CC1 [Example 59, (R)-N-(4-fluoro-2-methylphenyl)-2-((cis)-4-(6-fluoroquinolin-4-yl)cyclohexyl)propanamide]",> 0.25
20,"C[C@@H](C(=O)Nc1ccc(C(F)(F)F)cc1)[C@H]1CC[C@@H](c2ccnc3ccc(F)cc32)CC1 [Example 60, (R)-2-((cis)-4-(6-fluoroquinolin-4-yl)cyclohexyl)-N-(4-(trifluoromethyl)phenyl)propanamide]",< 0.05
21,"C[C@@H](C(=O)Nc1ccc2c(c1)OC(F)(F)O2)[C@H]1CC[C@@H](c2ccnc3ccc(F)cc32)CC1 [Example 61, (R)-N-(2,2-difluorobenzo[d][1,3]dioxol-5-yl)-2-((cis)-4-(6-fluoroquinolin-4-yl)cyclohexyl)propanamide]",< 0.05
22,"CCOc1ccccc1NC(=O)[C@H](C)[C@H]1CC[C@@H](c2ccnc3ccc(F)cc32)CC1 [Example 62, (R)-N-(2-ethoxyphenyl)-2-((cis)-4-(6-fluoroquinolin-4-yl)cyclohexyl)propanamide]",< 0.25
23,"Cc1cc(Cl)ccc1NC(=O)[C@H](C)[C@H]1CC[C@@H](c2ccnc3ccc(F)cc32)CC1 [Example 64, (R)-N-(4-chloro-2-methylphenyl)-2-((cis)-4-(6-fluoroquinolin-4-yl)cyclohexyl)propanamide]",< 0.25
24,"C[C@@H](C(=O)Nc1cccc(Cl)c1)[C@H]1CC[C@@H](c2ccnc3ccc(F)cc32)CC1 [Example 65, (R)-N-(3-chloropehnyl)-2-((cis)-4-(6-fluoroqinolin-4-yl)cyclohexyl)propanamide]",< 0.05
25,"C[C@@H](C(=O)Nc1ccc(Cl)c(Cl)c1)[C@H]1CC[C@@H](c2ccnc3ccc(F)cc32)CC1 [Example 66, (R)-N-(3,4-dichlorophenyl)-2-((cis)-4-(6-fluoroquinolin-4-yl)cyclohexyl)propanamide]",< 0.05

# Results, then the compound that gave them:
row,IC50 [µM],SMILES
1,> 0.25,"C[C@H](C(=O)Nc1ccc(Cl)cc1)[C@H]1CC[C@@H](c2ccnc3ncccc32)CC1 (single isomer, unassigned) [Example 148a]"
2,< 0.05,"C[C@@H](C(=O)Nc1ccc(Cl)cc1)[C@H]1CC[C@@H](c2ccnc3ncccc32)CC1 (single isomer, unassigned) [Example 148b]"
3,< 0.05,"C[C@H](C(=O)Nc1ccc(Cl)cc1)[C@H]1CC[C@H](c2ccnc3ncccc32)CC1 (single isomer, unassigned) [Example 148c]"
4,< 0.25,"C[C@@H](C(=O)Nc1ccc(Cl)cc1)[C@H]1CC[C@H](c2ccnc3ncccc32)CC1 (single isomer, unassigned) [Example 148d]"
5,< 0.05,"C[C@H](C(=O)Nc1ccc(Cl)cc1)[C@H]1CC[C@@H](c2ccnc3cn[nH]c32)CC1 (single isomer, unassigned) [Example 150a]"
6,> 0.25,"C[C@@H](C(=O)Nc1ccc(Cl)cc1)[C@H]1CC[C@@H](c2ccnc3cn[nH]c32)CC1 (single isomer, unassigned) [Example 150b]"
7,> 0.25,"C[C@H](C(=O)Nc1ccc(Cl)cc1)[C@H]1CC[C@H](c2ccnc3cn[nH]c32)CC1 (single isomer, unassigned) [Example 150c]"
8,< 0.05,"C[C@@H](C(=O)Nc1ccc(Cl)cc1)[C@H]1CC[C@H](c2ccnc3cn[nH]c32)CC1 (single isomer, unassigned) [Example 150d]"
9,< 0.05,"C[C@H](C(=O)Nc1ccc(Cl)cc1)[C@H]1CC[C@@H](c2ccnc3ccc(I)cc32)CC1 (single isomer, unassigned) [Example 152a]"
10,< 0.05,"C[C@@H](C(=O)Nc1ccc(Cl)cc1)[C@H]1CC[C@@H](c2ccnc3ccc(I)cc32)CC1 (single isomer, unassigned) [Example 152b]"
11,< 0.25,"C[C@H](C(=O)Nc1ccc(Cl)cc1)[C@H]1CC[C@H](c2ccnc3ccc(I)cc32)CC1 (single isomer, unassigned) [Example 152c]"
12,< 0.05,"C[C@@H](C(=O)Nc1ccc(Cl)cc1)[C@H]1CC[C@H](c2ccnc3ccc(I)cc32)CC1 (single isomer, unassigned) [Example 152d]"
13,< 0.05,"C[C@@H](C(=O)Nc1ccc(Cl)cc1)[C@H]1CC[C@@H](c2ccnc3c2ncn3C)CC1 (single isomer, unassigned) [Example 251a, N-(4-chlorophenyl)-2-(4-(3-methyl-3H-imidazo[4,5-b]pyridin-7-yl)cyclohexyl)propanamide]"
14,> 0.25,"C[C@@H](C(=O)Nc1ccc(Cl)cc1)[C@H]1CC[C@@H](c2ccnc3c2ncn3C)CC1 (single isomer, unassigned) [Example 251b, N-(4-chlorophenyl)-2-(4-(3-methyl-3H-imidazo[4,5-b]pyridin-7-yl)cyclohexyl)propanamide]"
15,< 0.05,"C[C@@H](C(=O)Nc1ccc(Cl)cc1)[C@H]1CC[C@@H](c2ccnc3c2ncn3C)CC1 (single isomer, unassigned) [Example 251c, N-(4-chlorophenyl)-2-(4-(3-methyl-3H-imidazo[4,5-b]pyridin-7-yl)cyclohexyl)propanamide]"
16,> 0.25,"C[C@@H](C(=O)Nc1ccc(Cl)cc1)[C@H]1CC[C@@H](c2ccnc3c2ncn3C)CC1 (single isomer, unassigned) [Example 251d, N-(4-chlorophenyl)-2-(4-(3-methyl-3H-imidazo[4,5-b]pyridin-7-yl)cyclohexyl)propanamide]"
